From US20070004660A1, “Synergistic Modulation of Flt3 Kinase Using Alkylquinolines and Alkylquinazolines” (priority 2005, published 2007)

biological target: T1, isolated kinase domain of the human FLT3 receptor (a.a. 571-993) (Homo sapiens, UniProt P36888); assay: FLT3 fluorescence polarization kinase assay; assay type: biochemical; details: 150 uM ATP; uncertainty ±10%
T1 construct: human FLT3 receptor (a.a. 571-993)
T1 sequence (P36888 571-993): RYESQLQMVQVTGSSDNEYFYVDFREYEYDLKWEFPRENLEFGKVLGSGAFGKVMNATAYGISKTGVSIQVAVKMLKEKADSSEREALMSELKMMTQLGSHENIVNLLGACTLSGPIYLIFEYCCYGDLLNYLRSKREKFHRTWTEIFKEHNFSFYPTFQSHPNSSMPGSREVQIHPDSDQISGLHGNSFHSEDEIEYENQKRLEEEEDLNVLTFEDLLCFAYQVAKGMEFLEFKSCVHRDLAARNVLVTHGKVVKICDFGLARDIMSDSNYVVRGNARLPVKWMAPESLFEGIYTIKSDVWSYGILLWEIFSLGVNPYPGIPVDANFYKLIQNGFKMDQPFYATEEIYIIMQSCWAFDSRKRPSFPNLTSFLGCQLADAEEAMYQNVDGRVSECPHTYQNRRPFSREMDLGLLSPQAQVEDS
Description: The FLT3 FP assay utilizes the fluorescein-labeled phosphopeptide and the anti-phosphotyrosine antibody included in the Panvera Phospho-Tyrosine Kinase Kit (Green) supplied by Invitrogen. When FLT3 phosphorylates polyGlu4Tyr, the fluorescein-labeled phosphopeptide is displaced from the anti-phosphotyrosine antibody by the phosphorylated poly Glu4Tyr, thus decreasing the FP value. The FLT3 kinase reaction is incubated at room temperature for 30 minutes under the following conditions: 10 nM FLT3 571-993, 20 ug/mL poly Glu4Tyr, 150 uM ATP, 5 mM MgCl2, 1% compound in DMSO. The kinase reaction is stopped with the addition of EDTA. The fluorescein-labeled phosphopeptide and the anti-phosphotyrosine antibody are added and incubated for 30 minutes at room temperature.
All data points are an average of triplicate samples. Inhibition and IC50 data analysis was done with GraphPad Prism using a non-linear regression fit with a multiparamater, sigmoidal dose-response (variable slope) equation.

Structure (SMILES)	IC50
CN1CCN(CCCOc2ccc3c(C4CCN(C(=O)Nc5ccc(N6CCOCC6)c(F)c5)CC4)ncnc3c2)CC1 [Example 81, 4-{7-[3-(4-Methyl-piperazin-1-yl)-propoxy]-quinazolin-4-yl}-piperidine-1-carboxylic acid (3-fluoro-4-morpholin-4-yl-phenyl)-amide]	7 nM
COc1cc2ncnc(C3CCN(C(=O)Nc4ccc(C5CCN(C(=O)OC(C)(C)C)CC5)cc4)CC3)c2cc1OC [Example 63, 4-(4-{[4-(6,7-Dimethoxy-quinazolin-4-yl)-piperidine-1-carbonyl]-amino}-phenyl)-piperidine-1-carboxylic acid tert-butyl ester]	2000 nM
CC(C)Oc1ccc(NC(=O)N2CCC(c3ncnc4cc(N(C)C)ccc34)CC2)cc1 [Example 100, 4-(7-Dimethylamino-quinazolin-4-yl)-piperidine-1-carboxylic acid (4-isopropoxy-phenyl)-amide]	80 nM
COc1cc2ncnc(C3CCN(C(=O)Nc4ccccc4)CC3)c2cc1OC [Example 45, 4-(6,7-Dimethoxy-quinazolin-4-yl)-piperidine-1-carboxylic acid phenylamide]	3700 nM
O=C(Nc1ccc(N2CCOCC2)cc1)N1CCC(c2ncnc3cc(OCCC4CCCCN4)ccc23)CC1 (centres unmarked) [Example 98, 4-[7-(2-Piperidin-2-yl-ethoxy)-quinazolin-4-yl]-piperidine-1-carboxylic acid (4-morpholin-4-yl-phenyl)-amide]	27 nM
O=C1CCCN1CCOc1ccc2c(C3CCN(C(=O)Nc4ccc(N5CCOCC5)cc4)CC3)ncnc2c1 [Example 85, 4-{7-[2-(2-Oxo-pyrrolidin-1-yl)-ethoxy]-quinazolin-4-yl}-piperidine-1-carboxylic acid (4-morpholin-4-yl-phenyl)-amide]	27 nM
CCCCc1ccc(NC(=O)N2CCC(c3ncnc4cc(OC)c(OC)cc34)CC2)cc1 [Example 43, 4-(6,7-Dimethoxy-quinazolin-4-yl)-piperidine-1-carboxylic acid (4-butyl-phenyl)-amide]	24 nM
CC(=O)N1CCN(CCOc2ccc3c(C4CCN(C(=O)Nc5ccc(N6CCOCC6)cc5)CC4)ncnc3c2)CC1 [Example 97, 4-{7-[2-(4-Acetyl-piperazin-1-yl)-ethoxy]-quinazolin-4-yl}-piperidine-1-carboxylic acid (4-morpholin-4-yl-phenyl)-amide]	28 nM
CC(=O)N1CCN(CCCOc2ccc3c(C4CCN(C(=O)Nc5ccc(N6CCOCC6)cc5)CC4)ncnc3c2)CC1 [Example 117, 4-{7-[3-(4-Acetyl-piperazin-1-yl)-propoxy]-quinazolin-4-yl}-piperidine-1-carboxylic acid (4-morpholin-4-yl-phenyl)-amide]	94 nM
COc1cc2ncnc(C3CCN(C(=O)Nc4ccc(C(C)O)cc4)CC3)c2cc1OC (centres unmarked) [Example 55, 4-(6,7-Dimethoxy-quinazolin-4-yl)-piperidine-1-carboxylic acid [4-(1-hydroxy-ethyl)-phenyl]-amide]	1100 nM
CN1CCC(COc2ccc3c(C4CCN(C(=O)Nc5ccc(N6CCOCC6)cc5)CC4)ncnc3c2)CC1 [Example 94, 4-[7-(1-Methyl-piperidin-4-ylmethoxy)-quinazolin-4-yl]-piperidine-1-carboxylic acid (4-morpholin-4-yl-phenyl)-amide]	1 nM
CC(C)Oc1ccc(NC(=O)N2CCC(c3ncnc4cc(OCCN5CCOC5=O)ccc34)CC2)cc1 [Example 79, 4-{7-[2-(2-Oxo-oxazolidin-3-yl)-ethoxy]-quinazolin-4-yl}-piperidine-1-carboxylic acid (4-isopropoxy-phenyl)-amide]	58 nM
COc1cc2ncnc(C3CCN(CC(=O)Nc4ccc(C(C)C)cc4)CC3)c2cc1OC [Example 9, 2-[4-(6,7-Dimethoxy-quinazolin-4-yl)-piperidin-1-yl]-N-(4-isopropyl-phenyl)-acetamide]	13 nM
CC(C)Oc1ccc(NC(=O)N2CCC(c3ncnc4cc(OCCCOS(C)(=O)=O)ccc34)CC2)cc1 [Example 121, Methanesulfonic acid 3-{4-[1-(4-isopropoxy-phenylcarbamoyl)-piperidin-4-yl]-quinazolin-7-yloxy}-propyl ester]	3 nM
CC(C)Oc1ccc(NC(=O)N2CCC(c3ncnc4cc(NCCCN5CCN(C)CC5)ccc34)CC2)cc1 [Example 102, 4-{7-[3-(4-Methyl-piperazin-1-yl)-propylamino]-quinazolin-4-yl}-piperidine-1-carboxylic acid (4-isopropoxy-phenyl)-amide]	5 nM
COc1cc2ncnc(C3CCN(C(=O)Nc4ccc(-c5ccco5)cc4)CC3)c2cc1OC [Example 59, 4-(6,7-Dimethoxy-quinazolin-4-yl)-piperidine-1-carboxylic acid (4-furan-2-yl-phenyl)-amide]	220 nM
CN1CCN(CCCOc2ccc3c(C4CCN(C(=O)Nc5ccc(OC6CCCC6)nc5)CC4)ncnc3c2)CC1 [Example 82, 4-{7-[3-(4-Methyl-piperazin-1-yl)-propoxy]-quinazolin-4-yl}-piperidine-1-carboxylic acid (6-cyclopentyloxy-pyridin-3-yl)-amide]	1 nM
CC(C)Oc1ccc(NC(=O)N2CCC(c3ncnc4cc(OCC5CCN(C)CC5)ccc34)CC2)cc1 [Example 93, 4-[7-(1-Methyl-piperidin-4-ylmethoxy)-quinazolin-4-yl]-piperidine-1-carboxylic acid (4-isopropoxy-phenyl)-amide]	0.2 nM
CC(C)Oc1ccc(NC(=O)N2CCC(c3ccnc4ccccc34)CC2)cc1 [Example 6, 4-Quinolin-4-yl-piperidine-1-carboxylic acid (4-isopropoxy-phenyl)-amide]	84 nM
O=C(Nc1ccc(N2CCCC2)nc1)N1CCC(c2ncnc3cc(OCCN4CCOCC4)ccc23)CC1 [Example 95, 4-[7-(2-Morpholin-4-yl-ethoxy)-quinazolin-4-yl]-piperidine-1-carboxylic acid (6-pyrrolidin-1-yl-pyridin-3-yl)-amide]	8 nM
CS(=O)(=O)NCCCOc1ccc2c(C3CCN(C(=O)Nc4ccc(OC5CCCC5)nc4)CC3)ncnc2c1 [Example 88, 4-[7-(3-Methanesulfonylamino-propoxy)-quinazolin-4-yl]-piperidine-1-carboxylic acid (6-cyclopentyloxy-pyridin-3-yl)-amide]	2 nM
CS(=O)(=O)NCCCOc1ccc2c(C3CCN(C(=O)Nc4ccc(N5CCOCC5)cc4)CC3)ncnc2c1 [Example 66, 4-[7-(3-Methanesulfonylamino-propoxy)-quinazolin-4-yl]-piperidine-1-carboxylic acid (4-morpholin-4-yl-phenyl)-amide]	18 nM
CCN(CC)CC#Cc1ccc2ncnc(C3CCN(C(=O)Nc4ccc(OC(C)C)cc4)CC3)c2c1 [Example 13, 4-[6-(3-Diethylamino-prop-1-ynyl)-quinazolin-4-yl]-piperidine-1-carboxylic acid (4-isopropoxy-phenyl)-amide]	72 nM
O=C(Nc1ccc(N2CCOCC2)cc1)N1CCC(c2ncnc3cc(OCCCN4CCN(CCO)CC4)ccc23)CC1 [Example 116, 4-(7-{3-[4-(2-Hydroxy-ethyl)-piperazin-1-yl]-propoxy}-quinazolin-4-yl)-piperidine-1-carboxylic acid (4-morpholin-4-yl-phenyl)-amide]	14 nM
O=C(NCCCOc1ccc2c(C3CCN(C(=O)Nc4ccc(N5CCCC5)nc4)CC3)ncnc2c1)N1CCOCC1 [Example 112, Morpholine-4-carboxylic acid (3-{4-[1-(6-pyrrolidin-1-yl-pyridin-3-ylcarbamoyl)-piperidin-4-yl]-quinazolin-7-yloxy}-propyl)-amide]	5 nM
CN1CCN(CCCOc2ccc3c(C4CCN(C(=O)Nc5ccc(N6CCOCC6)cc5)CC4)ncnc3c2)CC1 [Example 73, 4-{7-[3-(4-Methyl-piperazin-1-yl)-propoxy]-quinazolin-4-yl}-piperidine-1-carboxylic acid (4-morpholin-4-yl-phenyl)-amide]	3 nM
CS(=O)(=O)NCCCOc1ccc2c(C3CCN(C(=O)Nc4ccc(N5CCOCC5)nc4)CC3)ncnc2c1 [Example 87, 4-[7-(3-Methanesulfonylamino-propoxy)-quinazolin-4-yl]-piperidine-1-carboxylic acid (6-morpholin-4-yl-pyridin-3-yl)-amide]	32 nM
O=C1CCCN1CCOc1ccc2c(C3CCN(C(=O)Nc4cnc(N5CCCC5)nc4)CC3)ncnc2c1 [Example 84, 4-{7-[2-(2-Oxo-pyrrolidin-1-yl)-ethoxy]-quinazolin-4-yl}-piperidine-1-carboxylic acid (2-pyrrolidin-1-yl-pyrimidin-5-yl)-amide]	41 nM
O=C1CCCN1CCCOc1ccc2c(C3CCN(C(=O)Nc4cnc(N5CCCC5)nc4)CC3)ncnc2c1 [Example 90, 4-{7-[3-(2-Oxo-pyrrolidin-1-yl)-propoxy]-quinazolin-4-yl}-piperidine-1-carboxylic acid (2-pyrrolidin-1-yl-pyrimidin-5-yl)-amide]	73 nM
